# Values quoted from earlier work in publication PMC9851200, “Multiparameter phenotypic screening for endogenous TFEB and TFE3 translocation identifies novel chemical series modulating lysosome function” (Autophagy, 2022).
# Key:
# Parameters in all cases: method as in original PKIS2 published data
# [1] = molecular target: T1, kinases (KINOMEscan panel) (Homo sapiens, UniProt O76039); conditions: kinase CDKL5; Published KINOMEscan; ref original PKIS2 published data; cited from earlier work
# T1 sequence (O76039 1-960): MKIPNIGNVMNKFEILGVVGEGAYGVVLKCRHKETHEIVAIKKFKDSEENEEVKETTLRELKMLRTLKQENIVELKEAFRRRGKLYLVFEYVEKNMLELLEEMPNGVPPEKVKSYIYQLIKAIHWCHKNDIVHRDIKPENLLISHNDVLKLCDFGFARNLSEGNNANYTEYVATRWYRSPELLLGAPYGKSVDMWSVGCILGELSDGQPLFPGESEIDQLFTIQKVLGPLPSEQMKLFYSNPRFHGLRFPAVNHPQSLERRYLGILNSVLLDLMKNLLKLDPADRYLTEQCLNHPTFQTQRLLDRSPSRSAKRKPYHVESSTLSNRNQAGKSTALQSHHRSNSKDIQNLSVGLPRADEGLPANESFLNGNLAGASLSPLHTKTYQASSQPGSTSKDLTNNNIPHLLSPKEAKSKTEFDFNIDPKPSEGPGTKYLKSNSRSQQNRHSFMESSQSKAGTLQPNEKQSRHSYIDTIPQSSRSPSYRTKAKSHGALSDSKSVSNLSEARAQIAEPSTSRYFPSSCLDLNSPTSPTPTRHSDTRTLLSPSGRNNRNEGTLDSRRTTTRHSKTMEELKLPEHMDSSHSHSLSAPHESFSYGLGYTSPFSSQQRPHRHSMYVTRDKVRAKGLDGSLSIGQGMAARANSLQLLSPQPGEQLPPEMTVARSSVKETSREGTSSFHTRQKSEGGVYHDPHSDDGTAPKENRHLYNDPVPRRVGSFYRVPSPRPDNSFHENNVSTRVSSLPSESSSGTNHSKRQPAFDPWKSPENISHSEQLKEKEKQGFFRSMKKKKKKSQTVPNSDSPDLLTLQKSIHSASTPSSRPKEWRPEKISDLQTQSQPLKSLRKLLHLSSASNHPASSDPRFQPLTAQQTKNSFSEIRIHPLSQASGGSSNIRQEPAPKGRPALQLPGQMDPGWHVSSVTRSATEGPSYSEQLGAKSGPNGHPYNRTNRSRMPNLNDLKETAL
# [2] = molecular target: T2, kinases (KINOMEscan panel) (Homo sapiens, UniProt P52333); conditions: kinase JAK3(JH1domain-catalytic); Published KINOMEscan; ref original PKIS2 published data; cited from earlier work
# T2 sequence (P52333 1-1124): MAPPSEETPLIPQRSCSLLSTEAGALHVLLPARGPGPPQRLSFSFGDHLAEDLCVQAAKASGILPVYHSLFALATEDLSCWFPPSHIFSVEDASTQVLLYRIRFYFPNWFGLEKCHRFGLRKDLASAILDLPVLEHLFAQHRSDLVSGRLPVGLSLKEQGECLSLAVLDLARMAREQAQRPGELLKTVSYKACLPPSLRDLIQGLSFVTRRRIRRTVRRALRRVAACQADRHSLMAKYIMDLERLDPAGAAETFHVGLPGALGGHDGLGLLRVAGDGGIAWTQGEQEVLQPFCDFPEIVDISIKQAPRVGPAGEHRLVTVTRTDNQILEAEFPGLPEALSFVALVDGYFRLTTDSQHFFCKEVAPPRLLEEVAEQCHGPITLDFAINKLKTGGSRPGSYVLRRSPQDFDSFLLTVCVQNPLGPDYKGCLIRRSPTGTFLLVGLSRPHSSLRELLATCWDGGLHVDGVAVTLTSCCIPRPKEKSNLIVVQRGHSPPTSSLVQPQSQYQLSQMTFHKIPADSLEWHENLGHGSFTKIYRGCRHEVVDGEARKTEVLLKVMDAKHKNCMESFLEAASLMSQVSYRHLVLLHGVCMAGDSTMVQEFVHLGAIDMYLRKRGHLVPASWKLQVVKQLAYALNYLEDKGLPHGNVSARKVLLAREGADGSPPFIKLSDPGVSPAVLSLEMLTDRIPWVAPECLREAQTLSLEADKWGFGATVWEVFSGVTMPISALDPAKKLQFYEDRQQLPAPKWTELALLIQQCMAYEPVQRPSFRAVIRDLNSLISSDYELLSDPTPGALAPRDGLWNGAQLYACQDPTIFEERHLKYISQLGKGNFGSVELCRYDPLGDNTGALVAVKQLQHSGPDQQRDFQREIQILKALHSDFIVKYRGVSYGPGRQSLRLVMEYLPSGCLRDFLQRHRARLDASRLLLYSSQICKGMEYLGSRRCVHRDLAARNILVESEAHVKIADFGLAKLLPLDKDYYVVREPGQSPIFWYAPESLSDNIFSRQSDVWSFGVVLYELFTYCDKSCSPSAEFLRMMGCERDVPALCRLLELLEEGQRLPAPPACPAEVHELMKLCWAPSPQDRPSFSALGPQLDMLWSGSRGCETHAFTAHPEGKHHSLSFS
# [3] = molecular target: kinases (KINOMEscan panel) (Homo sapiens, UniProt Q8NI60); conditions: COQ8A; Published KINOMEscan; ref original PKIS2 published data; cited from earlier work
# kinases (KINOMEscan panel) (Homo sapiens, UniProt Q8NI60), sequence (Q8NI60 163-647): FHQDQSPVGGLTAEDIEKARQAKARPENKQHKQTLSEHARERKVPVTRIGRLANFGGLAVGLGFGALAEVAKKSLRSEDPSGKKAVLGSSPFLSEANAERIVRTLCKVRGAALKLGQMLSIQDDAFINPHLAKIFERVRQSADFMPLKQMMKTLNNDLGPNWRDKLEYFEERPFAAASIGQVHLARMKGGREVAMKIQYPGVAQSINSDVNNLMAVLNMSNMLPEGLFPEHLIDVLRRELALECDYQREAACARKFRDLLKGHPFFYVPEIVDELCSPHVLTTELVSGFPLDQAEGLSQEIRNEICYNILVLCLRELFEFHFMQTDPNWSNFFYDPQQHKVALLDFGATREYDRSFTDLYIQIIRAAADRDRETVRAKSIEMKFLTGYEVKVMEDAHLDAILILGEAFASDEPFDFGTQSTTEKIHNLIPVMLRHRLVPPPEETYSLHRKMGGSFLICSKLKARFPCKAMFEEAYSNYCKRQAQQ
# [4] = molecular target: kinases (KINOMEscan panel) (Homo sapiens, UniProt P80192); conditions: Published KINOMEscan; ref original PKIS2 published data; cited from earlier work
# kinases (KINOMEscan panel) (Homo sapiens, UniProt P80192), sequence (P80192 whole entry): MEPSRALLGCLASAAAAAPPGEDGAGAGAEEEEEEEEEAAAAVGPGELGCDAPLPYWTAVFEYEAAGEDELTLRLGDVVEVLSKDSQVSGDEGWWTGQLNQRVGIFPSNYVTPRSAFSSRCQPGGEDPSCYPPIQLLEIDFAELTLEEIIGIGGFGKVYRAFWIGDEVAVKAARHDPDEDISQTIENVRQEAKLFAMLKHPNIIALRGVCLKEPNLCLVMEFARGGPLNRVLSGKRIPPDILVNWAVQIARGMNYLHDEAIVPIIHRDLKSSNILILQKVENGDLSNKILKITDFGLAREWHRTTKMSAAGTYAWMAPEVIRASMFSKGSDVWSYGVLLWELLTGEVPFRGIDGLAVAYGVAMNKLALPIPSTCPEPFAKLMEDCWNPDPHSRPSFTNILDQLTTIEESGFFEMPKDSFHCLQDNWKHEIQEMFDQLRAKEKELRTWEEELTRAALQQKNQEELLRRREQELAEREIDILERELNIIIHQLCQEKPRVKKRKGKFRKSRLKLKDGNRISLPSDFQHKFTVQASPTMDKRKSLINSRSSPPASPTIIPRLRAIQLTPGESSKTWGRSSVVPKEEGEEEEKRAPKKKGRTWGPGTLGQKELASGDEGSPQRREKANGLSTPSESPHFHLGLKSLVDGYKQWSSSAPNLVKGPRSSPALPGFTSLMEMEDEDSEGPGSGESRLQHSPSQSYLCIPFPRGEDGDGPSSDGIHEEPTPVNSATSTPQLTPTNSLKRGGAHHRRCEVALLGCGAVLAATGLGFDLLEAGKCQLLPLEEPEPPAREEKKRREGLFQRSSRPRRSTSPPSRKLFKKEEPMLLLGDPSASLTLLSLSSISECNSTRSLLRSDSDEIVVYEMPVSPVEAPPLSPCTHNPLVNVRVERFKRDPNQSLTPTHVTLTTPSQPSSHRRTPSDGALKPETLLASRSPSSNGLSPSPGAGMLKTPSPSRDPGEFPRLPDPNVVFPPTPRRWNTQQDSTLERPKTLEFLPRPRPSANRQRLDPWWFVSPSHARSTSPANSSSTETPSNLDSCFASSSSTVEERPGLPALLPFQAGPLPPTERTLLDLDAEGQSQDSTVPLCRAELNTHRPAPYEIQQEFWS
# [5] = molecular target: kinases (KINOMEscan panel) (Homo sapiens, UniProt Q5VT25); conditions: cited from earlier work
# kinases (KINOMEscan panel) (Homo sapiens, UniProt Q5VT25), sequence (Q5VT25 whole entry): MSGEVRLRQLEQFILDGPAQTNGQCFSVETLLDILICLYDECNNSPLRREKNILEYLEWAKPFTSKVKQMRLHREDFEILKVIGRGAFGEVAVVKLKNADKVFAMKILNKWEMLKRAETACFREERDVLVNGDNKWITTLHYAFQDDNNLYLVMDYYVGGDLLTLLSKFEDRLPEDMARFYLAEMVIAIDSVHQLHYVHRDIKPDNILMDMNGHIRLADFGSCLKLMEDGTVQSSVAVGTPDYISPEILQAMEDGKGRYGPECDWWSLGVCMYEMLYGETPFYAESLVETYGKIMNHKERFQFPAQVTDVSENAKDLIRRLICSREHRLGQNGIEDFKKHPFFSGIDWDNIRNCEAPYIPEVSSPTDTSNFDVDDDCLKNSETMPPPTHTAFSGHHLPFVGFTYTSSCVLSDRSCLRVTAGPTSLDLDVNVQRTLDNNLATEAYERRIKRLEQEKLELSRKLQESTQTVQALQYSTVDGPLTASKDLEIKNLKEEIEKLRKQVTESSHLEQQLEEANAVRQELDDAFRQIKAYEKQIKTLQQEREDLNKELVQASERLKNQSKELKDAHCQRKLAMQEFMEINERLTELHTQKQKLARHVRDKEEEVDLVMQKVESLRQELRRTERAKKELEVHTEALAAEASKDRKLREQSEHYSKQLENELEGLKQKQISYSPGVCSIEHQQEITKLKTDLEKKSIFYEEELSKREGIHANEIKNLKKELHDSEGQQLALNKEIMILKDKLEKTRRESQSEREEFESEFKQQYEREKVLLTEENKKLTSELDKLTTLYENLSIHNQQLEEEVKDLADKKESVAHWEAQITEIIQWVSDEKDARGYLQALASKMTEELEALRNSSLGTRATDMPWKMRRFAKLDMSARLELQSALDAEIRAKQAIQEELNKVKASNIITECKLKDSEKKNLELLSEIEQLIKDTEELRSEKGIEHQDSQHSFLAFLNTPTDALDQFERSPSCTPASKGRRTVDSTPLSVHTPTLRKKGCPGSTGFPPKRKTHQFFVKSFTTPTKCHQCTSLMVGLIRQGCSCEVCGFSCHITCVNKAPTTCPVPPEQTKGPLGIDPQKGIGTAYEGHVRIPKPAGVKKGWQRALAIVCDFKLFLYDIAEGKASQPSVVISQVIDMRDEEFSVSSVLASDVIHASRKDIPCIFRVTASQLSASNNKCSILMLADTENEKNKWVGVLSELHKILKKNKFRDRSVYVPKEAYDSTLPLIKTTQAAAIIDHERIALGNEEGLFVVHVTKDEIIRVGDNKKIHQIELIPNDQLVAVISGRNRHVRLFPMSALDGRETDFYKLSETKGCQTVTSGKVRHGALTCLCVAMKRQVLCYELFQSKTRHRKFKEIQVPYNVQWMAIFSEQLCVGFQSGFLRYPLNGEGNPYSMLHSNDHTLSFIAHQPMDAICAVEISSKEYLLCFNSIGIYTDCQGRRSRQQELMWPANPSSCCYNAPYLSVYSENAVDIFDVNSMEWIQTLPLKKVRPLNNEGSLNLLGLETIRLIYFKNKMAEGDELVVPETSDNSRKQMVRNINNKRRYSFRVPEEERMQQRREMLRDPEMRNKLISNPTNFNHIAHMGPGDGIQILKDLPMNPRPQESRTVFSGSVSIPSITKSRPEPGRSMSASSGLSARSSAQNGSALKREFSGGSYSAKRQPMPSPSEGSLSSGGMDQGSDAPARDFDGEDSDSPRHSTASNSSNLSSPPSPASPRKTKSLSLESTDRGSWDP
smiles,measurement,setting,value
Cc1cccc(-c2nc(Nc3ccncc3)c3ccccc3n2)n1 [NK215],KINOMEscan CDKL5,[1],0
same,KINOMEscan JAK3(JH1domain-catalytic),[2],0
same,KINOMEscan COQ8A,[3],27
same,KINOMEscan MAP3K9,[4],11
same,KINOMEscan CDC42BPA/MRCKA,[5],47
